How the values were obtained:
CDK1/Cyclin B1 = CDK1/Cyclin B1 (Homo sapiens, UniProt P06493); assay: CDK1/Cyclin B1 Biochemical Assay (TR-FRET), 0.015 mM ATP; conditions: 0.15 μM Rb (Ser780)-biotin substrate, pH7.0, 60 min preincubation, 120 min reaction, room temperature
How it was run: (§1)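 TR-FRET readout: 665/620 nm ratio from Eu-cryptate anti-pRb(Ser780) antibody plus streptavidin-XL665, converted to % inhibition and fitted (4-parameter logistic) for IC50. Reactions used 0.15 μM biotinylated Rb (Ser780) substrate, compound 0–10 μM, 60 min enzyme–compound preincubation, then 120 min reaction at room temperature.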

CDK2/Cyclin E1 = CDK2/Cyclin E1 (Homo sapiens, UniProt P24941); assay: CDK2/Cyclin E1 Biochemical Assay (TR-FRET), 0.060 mM ATP; conditions: 0.15 μM Rb (Ser780)-biotin substrate, pH7.0, 60 min preincubation, 120 min reaction, room temperature
How it was run: as §1

CDK1/Cyclin B1, sequence (P06493 whole entry): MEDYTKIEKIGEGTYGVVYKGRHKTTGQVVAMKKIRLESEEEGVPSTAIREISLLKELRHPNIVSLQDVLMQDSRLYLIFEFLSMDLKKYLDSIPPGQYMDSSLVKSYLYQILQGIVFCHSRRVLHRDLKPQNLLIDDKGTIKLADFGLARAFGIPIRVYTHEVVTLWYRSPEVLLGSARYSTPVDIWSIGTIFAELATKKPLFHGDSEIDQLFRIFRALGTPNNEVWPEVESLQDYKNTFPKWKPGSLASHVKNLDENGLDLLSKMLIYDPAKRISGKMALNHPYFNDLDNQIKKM
CDK1/Cyclin B1, sequence (P14635 whole entry partner): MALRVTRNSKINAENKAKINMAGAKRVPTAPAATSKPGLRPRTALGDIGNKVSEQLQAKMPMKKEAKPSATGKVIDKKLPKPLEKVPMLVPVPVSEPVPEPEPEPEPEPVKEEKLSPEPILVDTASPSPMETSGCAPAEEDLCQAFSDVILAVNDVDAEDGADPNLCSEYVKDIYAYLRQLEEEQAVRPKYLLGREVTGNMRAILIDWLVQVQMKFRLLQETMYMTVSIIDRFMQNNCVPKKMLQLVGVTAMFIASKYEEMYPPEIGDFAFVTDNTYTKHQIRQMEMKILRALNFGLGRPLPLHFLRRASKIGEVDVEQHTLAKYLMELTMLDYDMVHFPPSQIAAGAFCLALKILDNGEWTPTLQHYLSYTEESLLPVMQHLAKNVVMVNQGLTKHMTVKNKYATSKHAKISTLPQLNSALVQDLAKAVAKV

How did the IC50 (CDK1/Cyclin B1) turn out when `CC(C)NC(=O)O[C@H]1CC[C@@H](c2cc(Nc3ccc4c(c3F)CN(CCN3CCOCC3)S4(=O)=O)n[nH]2)C1` (relative stereo) [Example 112, cis-3-(3-((4-fluoro-2-(2-morpholinoethyl)-1,1-dioxido-2,3-dihydrobenzo[d]isothiazol-5-yl)amino)-1H-pyrazol-5-yl)cyclopentyl isopropylcarbamate] was run?
Its IC50 is 0.458 µM.

And the IC50 (CDK2/Cyclin E1)?
The IC50 was 0.0063 µM.

How did the IC50 (CDK1/Cyclin B1) turn out when `CC(C)NC(=O)O[C@H]1CC[C@@H](c2cc(Nc3ccc4c(c3F)CN(CC(C)(C)O)S4(=O)=O)n[nH]2)C1` (relative stereo) [Example 76, cis-3-(3-((4-fluoro-2-(2-hydroxy-2-methylpropyl)-1,1-dioxido-2,3-dihydrobenzo[d]isothiazol-5-yl)amino)-1H-pyrazol-5-yl)cyclopentyl isopropylcarbamate] was run?
The IC50 was 0.416 µM.

And the IC50 (CDK2/Cyclin E1)?
Its IC50 is 0.01 µM.

`CC(C)NC(=O)O[C@H]1CC[C@@H](c2cc(Nc3cnc4c(c3)CNS4(=O)=O)n[nH]2)C1` (relative stereo) [Example 31, cis-3-(3-((1,1-dioxido-2,3-dihydroisothiazolo[5,4-b]pyridin-5-yl)amino)-1H-pyrazol-5-yl)cyclopentyl isopropylcarbamate] was tested. Which IC50 (CDK1/Cyclin B1) did it give?
Its IC50 is 0.166 µM.

And the IC50 (CDK2/Cyclin E1)?
The IC50 was 0.007 µM.

Which results are given for `CC(C)NC(=O)O[C@H]1CC[C@@H](c2cc(Nc3cc4c(cc3F)CS(=O)(=O)N4)n[nH]2)C1` (relative stereo) [Example 310, cis-3-(3-((5-fluoro-2,2-dioxido-1,3-dihydrobenzo[c]isothiazol-6-yl)amino)-1H-pyrazol-5-yl)cyclopentyl isopropylcarbamate]?
IC50 (CDK1/Cyclin B1): 2.2 µM; IC50 (CDK2/Cyclin E1): 0.081 µM

For `CC(C)NC(=O)O[C@H]1CC[C@@H](c2cc(Nc3cc(F)c4c(c3)NS(=O)(=O)C4)n[nH]2)C1` (relative stereo) [Example 311, cis-3-(3-((4-fluoro-2,2-dioxido-1,3-dihydrobenzo[c]isothiazol-6-yl)amino)-1H-pyrazol-5-yl)cyclopentyl isopropylcarbamate], which IC50 (CDK1/Cyclin B1) is on record?
Its IC50 is 0.158 µM.

What about the IC50 (CDK2/Cyclin E1) of the same compound?
The IC50 was 0.006 µM.

What does the source list for `CC(C)NC(=O)O[C@H]1CC[C@@H](c2cc(Nc3cc4c(cc3F)S(=O)(=O)NC4)n[nH]2)C1` (single isomer, unassigned) [Example 12a, cis-3-(3-((6-fluoro-1,1-dioxido-2,3-dihydrobenzo[d]isothiazol-5-yl)amino)-1H-pyrazol-5-yl)cyclopentyl isopropylcarbamate]?
IC50 (CDK1/Cyclin B1): 0.921 µM; IC50 (CDK2/Cyclin E1): 0.01 µM

`CC1(NC(=O)O[C@H]2CC[C@@H](c3cc(Nc4ccc5c(c4F)C(C)(C)NS5(=O)=O)n[nH]3)C2)CC1` (relative stereo) [Example 56, cis-3-(3-((4-fluoro-3,3-dimethyl-1,1-dioxido-2,3-dihydrobenzo[d]isothiazol-5-yl)amino)-1H-pyrazol-5-yl)cyclopentyl(1-methylcyclopropyl)carbamate] was tested. Which IC50 (CDK1/Cyclin B1) did it give?
The IC50 was 0.472 µM.

And the IC50 (CDK2/Cyclin E1)?
The IC50 was 0.025 µM.

Which results are given for `CC(C)NC(=O)O[C@H]1CC[C@@H](c2cc(Nc3cc4c(cc3F)N(C3CC3)S(=O)(=O)C4)n[nH]2)C1` (relative stereo) [Example 302, cis-3-(3-((1-cyclopropyl-6-fluoro-2,2-dioxido-1,3-dihydrobenzo[c]isothiazol-5-yl)amino)-1H-pyrazol-5-yl)cyclopentyl isopropylcarbamate]?
IC50 (CDK1/Cyclin B1): 0.686 µM; IC50 (CDK2/Cyclin E1): 0.021 µM

How did the IC50 (CDK1/Cyclin B1) turn out when `CC(C)NC(=O)O[C@H]1CC[C@@H](c2cc(Nc3ccc4c(c3)CS(=O)(=O)N4CC3COC3)n[nH]2)C1` (relative stereo) [Example 210, cis-3-(3-((1-(oxetan-3-ylmethyl)-2,2-dioxido-1,3-dihydrobenzo[c]isothiazol-5-yl)amino)-1H-pyrazol-5-yl)cyclopentyl isopropylcarbamate] was run?
Its IC50 is 0.04 µM.

And the IC50 (CDK2/Cyclin E1)?
The IC50 was 0.0021 µM.

Which results are given for `CC(C)NC(=O)O[C@H]1CC[C@@H](c2cc(Nc3ccc4c(c3F)CNS4(=O)=O)n[nH]2)C1` (single isomer, unassigned) [Example 9b, cis-3-(3-((4-fluoro-1,1-dioxido-2,3-dihydrobenzo[d]isothiazol-5-yl)amino)-1H-pyrazol-5-yl)cyclopentyl isopropylcarbamate]?
IC50 (CDK1/Cyclin B1): 0.094 µM; IC50 (CDK2/Cyclin E1): 0.0025 µM

Reference: US20260297080A1, “BICYCLIC COMPOUNDS AS CDK INHIBITORS” (BeOne Medicines I GmbH, priority 2022, published 2026)
